# Measurements taken from ChEMBL document CHEMBL1201862, “PubChem BioAssay data set” (2004).
# Activity calls are given as the source filed them. No rule for the calls is given here.
# Assays:
# Type in all cases: functional
# [1] = target: T1, Tyrosine-protein kinase ITK/TSK (Homo sapiens, UniProt Q08881);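 also: affinity for ITK measured as one member of a broad kinase panel profiling binding across the kinome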
# T1 sequence (Q08881 whole entry): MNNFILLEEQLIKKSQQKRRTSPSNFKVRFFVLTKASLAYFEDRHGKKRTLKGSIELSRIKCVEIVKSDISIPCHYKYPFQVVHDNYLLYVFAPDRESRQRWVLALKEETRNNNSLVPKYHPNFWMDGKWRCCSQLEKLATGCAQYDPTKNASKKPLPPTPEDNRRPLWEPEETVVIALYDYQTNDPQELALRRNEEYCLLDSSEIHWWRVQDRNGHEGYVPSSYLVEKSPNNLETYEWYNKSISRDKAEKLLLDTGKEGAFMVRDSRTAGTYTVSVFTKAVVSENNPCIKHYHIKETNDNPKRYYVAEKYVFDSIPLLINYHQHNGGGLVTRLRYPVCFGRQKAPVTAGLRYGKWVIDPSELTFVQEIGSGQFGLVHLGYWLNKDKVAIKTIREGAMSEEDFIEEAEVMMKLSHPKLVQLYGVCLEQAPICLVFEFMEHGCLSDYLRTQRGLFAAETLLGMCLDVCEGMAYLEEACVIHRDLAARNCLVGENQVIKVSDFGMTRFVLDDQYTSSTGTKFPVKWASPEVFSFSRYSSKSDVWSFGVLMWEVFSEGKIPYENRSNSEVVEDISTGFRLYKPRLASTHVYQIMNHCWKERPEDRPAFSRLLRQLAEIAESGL
# [2] = target: T2, Mitogen-activated protein kinase kinase kinase kinase 2 (Homo sapiens, UniProt Q12851);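 also: measured as one member of a kinome-wide kinase panel, with MAP4K2 as the panel entry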
# T2 sequence (Q12851 whole entry): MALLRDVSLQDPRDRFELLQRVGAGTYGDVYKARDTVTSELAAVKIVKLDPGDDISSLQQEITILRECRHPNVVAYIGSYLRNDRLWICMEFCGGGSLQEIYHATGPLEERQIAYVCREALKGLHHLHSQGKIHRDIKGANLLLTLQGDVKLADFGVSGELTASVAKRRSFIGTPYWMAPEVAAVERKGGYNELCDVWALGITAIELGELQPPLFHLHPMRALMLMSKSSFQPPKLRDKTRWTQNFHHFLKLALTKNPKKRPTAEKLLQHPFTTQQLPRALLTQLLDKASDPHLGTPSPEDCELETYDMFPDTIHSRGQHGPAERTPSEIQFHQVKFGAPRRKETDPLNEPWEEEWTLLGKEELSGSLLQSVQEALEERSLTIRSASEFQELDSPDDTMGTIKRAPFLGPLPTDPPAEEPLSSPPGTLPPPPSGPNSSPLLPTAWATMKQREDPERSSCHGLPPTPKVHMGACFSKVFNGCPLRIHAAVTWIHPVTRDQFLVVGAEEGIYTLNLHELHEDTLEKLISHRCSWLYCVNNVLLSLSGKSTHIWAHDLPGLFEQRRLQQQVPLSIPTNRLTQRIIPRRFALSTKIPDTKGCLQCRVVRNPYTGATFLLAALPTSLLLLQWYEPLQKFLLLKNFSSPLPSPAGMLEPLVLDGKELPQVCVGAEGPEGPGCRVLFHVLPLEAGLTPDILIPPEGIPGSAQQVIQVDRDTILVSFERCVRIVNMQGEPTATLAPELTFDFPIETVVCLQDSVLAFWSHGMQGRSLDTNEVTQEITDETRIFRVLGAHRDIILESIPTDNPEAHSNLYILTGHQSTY
# [3] = target: T3, Serine/threonine-protein kinase PLK4 (Homo sapiens, UniProt O00444);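 also: PLK4 measured as one member of a kinome-wide kinase profiling panel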
# T3 sequence (O00444 whole entry): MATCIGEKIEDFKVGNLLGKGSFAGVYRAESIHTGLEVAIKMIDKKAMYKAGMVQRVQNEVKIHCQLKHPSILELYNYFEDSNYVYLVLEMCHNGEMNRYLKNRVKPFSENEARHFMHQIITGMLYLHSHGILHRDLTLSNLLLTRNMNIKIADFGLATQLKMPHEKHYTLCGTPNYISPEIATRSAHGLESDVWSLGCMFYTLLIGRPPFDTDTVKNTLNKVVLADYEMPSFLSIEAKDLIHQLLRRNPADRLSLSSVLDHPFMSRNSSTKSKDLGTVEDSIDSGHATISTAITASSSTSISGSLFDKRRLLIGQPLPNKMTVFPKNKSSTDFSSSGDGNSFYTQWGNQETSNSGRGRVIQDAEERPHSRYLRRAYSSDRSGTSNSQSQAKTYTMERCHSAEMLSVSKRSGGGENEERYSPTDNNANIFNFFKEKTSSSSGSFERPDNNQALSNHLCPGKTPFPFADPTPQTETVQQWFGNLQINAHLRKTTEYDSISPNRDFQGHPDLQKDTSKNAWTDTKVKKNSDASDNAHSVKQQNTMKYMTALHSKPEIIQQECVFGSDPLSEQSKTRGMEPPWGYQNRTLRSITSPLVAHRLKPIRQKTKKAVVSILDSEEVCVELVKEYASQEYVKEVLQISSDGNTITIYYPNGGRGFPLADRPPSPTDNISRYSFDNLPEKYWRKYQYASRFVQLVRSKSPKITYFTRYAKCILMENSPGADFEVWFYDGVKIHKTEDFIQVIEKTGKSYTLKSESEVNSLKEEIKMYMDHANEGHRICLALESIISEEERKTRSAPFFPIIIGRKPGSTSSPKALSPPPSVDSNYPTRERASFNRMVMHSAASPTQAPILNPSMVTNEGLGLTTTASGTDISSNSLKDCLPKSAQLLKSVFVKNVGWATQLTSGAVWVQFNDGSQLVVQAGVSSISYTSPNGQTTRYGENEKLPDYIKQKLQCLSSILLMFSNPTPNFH
# Aurora kinase B = Aurora kinase B (Homo sapiens, UniProt Q96GD4)
# Chain of Aurora kinase B (Q96GD4 whole entry): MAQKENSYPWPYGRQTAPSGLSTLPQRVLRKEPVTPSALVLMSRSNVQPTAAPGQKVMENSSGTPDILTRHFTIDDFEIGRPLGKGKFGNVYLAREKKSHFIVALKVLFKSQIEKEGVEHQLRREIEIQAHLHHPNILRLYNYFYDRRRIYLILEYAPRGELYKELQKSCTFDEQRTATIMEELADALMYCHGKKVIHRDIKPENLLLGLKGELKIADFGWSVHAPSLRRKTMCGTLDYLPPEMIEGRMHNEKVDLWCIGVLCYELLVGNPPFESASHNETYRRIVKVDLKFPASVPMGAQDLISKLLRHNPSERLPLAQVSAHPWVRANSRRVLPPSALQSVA
Ki [1],Ki [2],pKi [2],Ki [3],pKi [3],Ki (Aurora kinase B),pKi (Aurora kinase B),Compound
> 1580 nM (inactive),200 nM (active),6.7,501 nM (active),6.3,631 nM (active),6.2,NC(=O)c1cc(-c2ccnc(N)n2)[nH]c1-c1ccc(Cl)cc1Cl
1260 nM (active),39.8 nM (active),–,200 nM (active),–,200 nM (active),–,NC(COc1cncc(-c2ccc3c(c2)C(=Cc2ccco2)C(=O)N3)c1)Cc1c[nH]c2ccccc12 (stereo not given)

Compound,Ki [1],Ki [2],pKi [2],Ki [3],pKi [3],Ki (Aurora kinase B),pKi (Aurora kinase B)
Cc1ccc(-n2nc(C(C)(C)C)cc2NC(=O)Nc2ccc(OCCN3CCOCC3)c3ccccc23)cc1 [DORAMAPIMOD],> 1580 nM (inactive),> 2510 nM (inactive),–,> 3980 nM (inactive),–,> 5010 nM (inactive),–
